Source: patent US20120183619A1, “TRICLOSAN DERIVATIVES AND NANOPARTICLES COMPRISING SAME” (BAR ILAN UNIVERSITY, priority 2011, published 2012)
Values after ≈ are worked out from the molar mass of the structure shown.

Key:
[1] = cited from earlier work
[2] = system: Escherichia Coli (E. coli) (Gram-negative); assay: Killing curves / antimicrobial activity on E. coli; assay type: cell-based
Method: (§1) In order to investigate the antimicrobial activity of the nanoparticles, a series of biological experiments were designed and carried out on two common bacterial pathogens, Escherichia Coli (E. coli) (Gram-negative) and Staphylococcus Aureus (S. aureus) (Gram-positive). Killing curves were determined in triplicate using starting inocula of 10^6 CFU mL^−1. Fresh, overnight growths of bacteria in TSB or TSB-Glu were diluted as necessary to produce the desired starting inocula in 10 mL of medium. T-SNPs and triclosan were tested in concentration ranges from 0 to 50 μg mL^−1 and 0 to 1 μg mL^−1, respectively. Unloaded SNPs were added at the highest tested concentration (50 μg mL^−1). TTESPC was previously dissolved in dimethyl sulfoxide (DMSO) and added to the media at a concentration of 50 μg mL^−1. Samples (100 μL) were removed from each well every 2 h and diluted appropriately in saline. Colony-forming units were determined by spotting 5 μL samples in triplicate on Luria-Bertani agar plates after 24 h incubation at 37° C. To confirm that the antimicrobial properties of the T-SNPs were mediated by the sole release of triclosan, the triclosan-resistant strain of E. coli, RJH108, was exposed to the highest concentration of T-SNPs tested (50 μg mL^−1). The viability was determined by using the same experimental protocol as described above.
(§2) Despite the similar MICs, a difference in the sensitivity of these strains to the T-SNPs treatment was observed. […] Then, the nanoparticles were centrifuged, filtered and the supernatant was incubated separately with E. coli and S. aureus and their growth was monitored. […]
(§3) The MIC of free triclosan that affected the growth of the two types of bacteria was measured (FIGS. 11A-B). […] As calculated from the elemental analysis, the triclosan constituted only […] of the nanoparticles, meaning that the highest concentration of nanoparticles taken for the experiments, 50 μg mL^−1, encompassed only 0.041 μg mL^1 of covalently bound triclosan. […]

[3] = system: Staphylococcus Aureus (S. aureus) (Gram-positive); assay: Killing curves / antimicrobial activity on S. aureus; assay type: cell-based
Method: as §1, §2, §3

Oc1cc(Cl)ccc1Oc1ccc(Cl)cc1Cl [triclosan, 5-chloro-2-(2,4-dichlorophenoxy)phenol]
chemical stability (time) ([1]; at up to 200° C.): up to 2 h
solubility in aqueous solution ([1]; unless the pH is alkaline): fairly insoluble
effect on bacterial growth at equal triclosan concentration ([2]; E. coli, 0.041 μg mL^1 triclosan (50 μg mL^−1 nanoparticles)): only began to impede the bacterial growth
MBC ([2]; Escherichia coli, read-out: minimal bactericidal concentration (MIC)): 0.1 µg/mL (≈ 0.345 µM)
effect on bacterial growth at equal triclosan concentration ([3]; S. aureus, 0.041 μg mL^1 triclosan (50 μg mL^−1 nanoparticles)): only began to impede the bacterial growth
MBC ([3]; Staphylococcus aureus, read-out: minimal bactericidal concentration (MIC)): 0.1 µg/mL (≈ 0.345 µM)

CCO[Si](CCCNC(=O)Oc1cc(Cl)ccc1Oc1ccc(Cl)cc1Cl)(OCC)OCC [TTESPC, 5-chloro-2-(2,4-dichlorophenoxy)phenyl (3-(triethoxysilyl)propyl)carbamate]
antibacterial activity (control) ([2]; E. coli, 50 μg mL^−1, dissolved in DMSO): no antibacterial activity was observed
antibacterial activity (control) ([3]; S. aureus, 50 μg mL^−1, dissolved in DMSO): no antibacterial activity was observed
